Test results from patent publication US5412117A, “Benzopyran derivatives” (Chugai Seiyaku Kabushiki Kaisha, priority 1990, dated 1995).

Tests used:
[1] = system: histamine-induced increase in respiratory tract inner pressure; assay: Study on Antiasthmatic Activity: inhibition of histamine-induced increase in respiratory tract inner pressure; format: in vivo, male Hartley guinea pig; details: Cavia porcellus; dose for 50% inhibition of histamine-induced increase in respiratory tract inner pressure; intraduodenal, anesthetized guinea pig
Method: Study on Antiasthmatic Activity
A mid-line incision was made in the neck of a male Hartley guinea pig (600 to 800 g, CRJ) under anesthesia with pentobarbitar (40 mg/kg, i.p.). The trachea, the left […], and the left carotid artery were exposed, and a cannula was inserted into each of them. The inner pressure of the respiratory tract was measured while applying artificial respiration through the tracheal cannula. The blood pressure was measured through the arterial cannula, and the heart rate was determined from the pulse. Pentobarbital for anesthesia maintenance was continuously administered through the venous cannula. A mid-line incision was made on the abdomen to expose the duodenum, and a cannula for intraduodenal administration was inserted thereinto. After the postoperative convalescence of 30 to 60 minutes, histamine (5 to 10 μg/kg) was intravenously administered every 10 minutes. After it was confirmed that a respiratory tract inner pressure rise reaction was stably obtained, a test compound in the form of a 0.3% CMC suspension was intraduodenally administered. The histamine dose was so selected that the respiratory tract inner pressure might rise to 20 to 40 cmH2 O after every lntravenous administration. After administration of the test compound, intravenous administration of histamine at 10 minutes intervals was continued. The histamine-induced increase in respiratory tract inner pressure after the administration of the test compound was compared with that before the administration.

Excised Aorta of Rat = assay: Test with Excised Aorta of Rat: relaxation of lasting contraction following KCl (30 mM) addition; format: cell-based, male Sprague Dawley rat; details: rat thoracic aorta rings, 30 mM KCl contraction, 37° C.
Method: Test with Excised Aorta of Rat
The thoracic aorta was excised from a male Sprague Dawley rat (450 to 600 g) and cut into 2 mm wide ring preparations. Each preparation was suspended in 10 ml of an organ bath containing a Krebs-Henseleit solution (NaCl:119; KCl:4.8; CaCl2 ·2H2 O: 2.53; KH2 PO4 :1.2; MgSO4 ·7H2 O: 1.2; NaHCO3 : 24.8; glucose: 10 (mM); 37° C.) under a tension of 2 g, and a mixed gas of 95% O2 and 5% CO2 was bubbled therethrough. Isometric contractions of the preparation were recorded by means of an FD pick-up. […] The activity of a test compound to relax a lasting contraction following the KCl addition was evaluated by obtaining a 50% inhibitory concentration (IC50).
The compounds of the present invention obtained in the foregoing Examples and, for comparison, Cromakalim were used as test compounds.

[2] = system: Guinea Pig Tracheal Muscle; assay: Test with Guinea Pig Tracheal Muscle: relaxation of spontaneous tension; format: cell-based, male Hartley guinea pig; details: Cavia porcellus; concentration exhibiting 50% relaxing activity, relaxing activity of 1 mM aminophylline taken as 100%, 37° C.
Method: Test with Guinea Pig Tracheal Muscle
The trachea was excised from a male Hartley guinea pig (450 to 550 g) to make chain preparations. The preparation was suspended in a bath containing the same Krebs-Henseleit solution as used in Test Example 1 (37° C.) through which a mixed gas of 95% O2 and 5% CO2 was bubbled. Isometric contractions of the preparation were recorded under a tension of 1 g.
The same test compounds as used in Test Example 1 were used.

SMILES | IC50 (Excised Aorta of Rat) | IC50 [2] | ED50 [1]
CC1(C)Oc2ccc(C#N)cc2[C@@H](N2CCCC2=O)[C@@H]1O (relative stereo) [Cromakalim, reference compound] | 180 nM | 790 nM | 1 to 3 mg/kg
CNC(=S)C1=CC(C)(C)Oc2ccc([N+](=O)[O-])cc21 [Compound 8, N,2,2-Trimethyl-6-nitro-2H-1-benzopyran-4-carbothioamide] | 1.4 nM | 6.3 nM | 0.1 to 0.3 mg/kg
CN=C(NC#N)C1=CC(C)(C)Oc2ccc([N+](=O)[O-])cc21 [Compound 12, N-Cyano-N'-methyl-6-nitro-2,2-dimethyl-2H-1-benzopyran-4-carboxamidine] | 11 nM | 23 nM | 0.1 to 0.3 mg/kg
CNC(=O)C1CC(C)(C)Oc2ccc([N+](=O)[O-])cc21 (stereo not shown) [Compound 22, N-Methyl-3,4-dihydro-6-nitro-2,2-dimethyl-2H-1-benzopyran-4-carboxamide] | 14 nM | 36 nM | < 0.3 mg/kg
CCC1(C)C=C(C(=S)NC)c2cc([N+](=O)[O-])ccc2O1 (stereo not shown) [Compound 90] | 0.18 nM | 2.9 nM | –
CNC(=S)C1=CC2(CCCCC2)Oc2ccc([N+](=O)[O-])cc21 [Compound 91] | 0.14 nM | 38 nM | –
CNC(=S)C1=CC(C)(C)Oc2ccc(C(F)(F)F)cc21 [Compound 104] | 2.6 nM | 37 nM | –
CCNC(=S)C1=CC(C)(C)Oc2ccc([N+](=O)[O-])cc21 [Compound 113] | 3.7 nM | 11 nM | –
CNC(=S)C1=CC2(CCCC2)Oc2ccc([N+](=O)[O-])cc21 [Compound 128] | 0.037 nM | 50 nM | –
CNC(=S)C1=CC(C)(C)Oc2ccc(Br)cc21 [Compound 134] | 9.3 nM | 75 nM | –
CCCNC(=O)C1=CC(C)(C)Oc2ccc([N+](=O)[O-])cc21 [Compound 146] | 5.7 nM | 56 nM | –
CCN(CC)C(=O)C1=CC(C)(C)Oc2ccc([N+](=O)[O-])cc21 [Compound 193] | 6000 nM | 57 nM | < 0.3 mg/kg

Second part, led by results:

IC50 (Excised Aorta of Rat) | IC50 [2] | SMILES | ED50 [1]
33 nM | 200 nM | CNC(=S)C1=CC(C)(C)Oc2ccc(C#N)cc21 [Compound 3, N-Methyl-6-cyano-2,2-dimethyl-2H-1-benzopyran-4-carbothioamide] | –
11 nM | 33 nM | CNC(=O)C1=CC(C)(C)Oc2ccc([N+](=O)[O-])cc21 [Compound 10, N-Methyl-6-nitro-2,2-dimethyl-2H-1-benzopyran-4-carboxamide] | < 0.1 mg/kg
> 30000 nM | 54 nM | CN(C)C(=NC#N)C1=CC(C)(C)Oc2ccc([N+](=O)[O-])cc21 [Compound 11, N^2 -Cyano-N^1,N^1-dimethyl-6-nitro-2,2-dimethyl-2H-1-benzopyran-4-carboxamidine] | 0.1 mg/kg
3 nM | 41 nM | CCCNC(=S)C1=CC(C)(C)Oc2ccc([N+](=O)[O-])cc21 [Compound 115] | –
3.7 nM | 22 nM | CC1(C)C=C(C(=S)NC2CC2)c2cc([N+](=O)[O-])ccc2O1 [Compound 137] | –
2.1 nM | 16 nM | CCC1(C)C=C(C(=O)NC)c2cc([N+](=O)[O-])ccc2O1 (stereo not shown) [Compound 181] | 0.1 to 0.3 mg/kg
0.042 nM | 11 nM | CNC(=O)C1=CC2(CCCCC2)Oc2ccc([N+](=O)[O-])cc21 [Compound 186] | –
